Reference: article PMC12648657, “Sc(III) Complexes of 1,4,7-Triazacyclononane-1,4,7-triacetic Acid and Its Monoamides” (Inorganic Chemistry, 2025)

Legend:
[1] = Potentiometric determination of stability constants of Sc^III complexes; format: physicochemical; details: for log K, [Sc(L)] + HL ↔ [M(HL)(L)]: I = 0.1 M NMe4Cl, coordination of second ligand molecule
Method: Potentiometry was carried out according to the previously published procedures; for the preparation of stock solutions and chemicals, equipment, electrode system calibration, titration procedures and data treatment, see refs – . Throughout the paper, pH means −log[H^+]. The protonation and stability constants were determined in 0.1 M (NMe4)Cl at 25.0 °C with pK w = 13.81. The Sc^III–H3nota system was studied by in-cell titrations from data obtained in the pH range 1.6–12 with ∼40 points per titration and four parallel titrations (c L = 0.004 M, c Sc = 0.004 or 0.002 M). The Sc^III–H2 L ^1 and Sc^III–H2 L ^2 systems were studied by a combination of the out-of-cell and in-cell methods. The out-of-cell method was performed at 1:1 ligand-to-metal ratio (c L = c Sc = 0.004 M, pH 1.5–5.0, 15–25 points per titration), and the in-cell method was performed at 1:1 and 2:1 ligand-to-metal ratios (c L = c Sc = 0.004, pH 5.0–12.0 or until precipitation of hydroxide, 15–20 points per titration; or c L = 0.004 M, c M = 0.002 M, pH 2.0–11.5, ∼40 points per titration). […] Stability constants for the Sc^III–OH^– system were taken from the literature. Protonation constants of ligands were adopted from literature–H3nota: 13.17, 5.74, 3.22, 1.96, 0.70; H2 L ^1 : 13.03, 4.24, 2.04, 0.67; H2 L ^2 : 12.93, 4.91, 2.48, 0.92.
High thermodynamic stability of complexes is an important property of metal complexes used in radio medicine. Thus, stability constants of the Sc^III complexes with the studied chelators were determined by potentiometry. Complexation of Sc^III by H3nota was fast, and thus, it was studied by the direct titration technique (in-cell method). Complexation of Sc^III by H2 L ^1 and H2 L ^2 was slower in the acidic region (pH < 3) and, thus, the batch titrations (out-of-cell method) had to be applied. In addition, the systems were studied in-cell in the neutral and weakly alkaline regions. The strongly alkaline region cannot be studied in the Sc^III–H2 L ^1 and Sc^III–H2 L ^2 systems due to decomposition of the complexes and precipitation of Sc^III hydroxide.

[2] = Solution stability of Sc^III complexes (alkaline solution, excess oxalate); format: physicochemical; details: slowly decompose in strongly alkaline solutions or under excess oxalate, yielding insoluble Sc^III oxalate or hydroxide
Method: The NMR experiments were carried out on the Bruker Avance III 600 (with a cryoprobe), Bruker Avance III HD 400 or Varian VNMRS 300 MHz or Varian Unity Inova-400 spectrometers in 5 mm tubes. Chemical shifts are given in ppm, and the coupling constants are in Hz. All NMR spectra were collected at 25 °C. The shifts were referenced with external standards: 0.1% tBuOH in D2O (^1H δ 1.25 ppm, ^13C δ 30.30 ppm). External reference for ^45Sc was 0.1 M solution of Sc(ClO4)3 in 1 M aq. HClO4. The pH of samples was adjusted with diluted aq. HCl or aq. LiOH (∼0.5%), or maintained with 0.25 M imidazole/HCl buffer. Binary complexes were prepared by mixing solid ligands (typically at a final concentration of 25 mM) with standardized ScCl3 solution in Sc/L 1:1 or 1:2 molar ratios. Ternary complexes with oxalate anions were studied by mixing a lithium(I) oxalate aq. solution (25 mM) and variable amounts of stock solutions (200 mM) of Sc^III complexes with the studied ligands.

[3] = comparison table; literature value; cited from earlier work
[4] = comparison table; literature value; cited from earlier work; remark: listed apart in the source
[5] = comparison table; literature value; cited from earlier work; remark: listed apart in the source
[6] = comparison table; literature value; cited from earlier work; remark: listed apart in the source
[7] = comparison table; literature value; cited from earlier work; remark: listed apart in the source
[8] = Sc^III complexes of other ligands; literature values; cited from earlier work

Overall stability constant logβ, Sc + L ⇄ [Sc(L)] ([1]; I = 0.1M (NMe4)Cl, 25 °C)	log K, Sc + L ↔ [Sc(L)] ([1]; I = 0.1M (NMe4)Cl, 25 °C)	log K, [Sc(L)(OH)] + H+ ↔ [M(L)(H2O)] ([1]; I = 0.1M (NMe4)Cl, 25 °C)	log K, [Sc(L)] + HL ↔ [M(HL)(L)] ([1]; 25 °C)	Structure (SMILES)	Stability constant log K ML, Cu^II [3]	Stability constant log K ML, Zn^II [4]	log K [M(L)] of Sc^III complex [8]	other results
16.64(1)	16.64	7.36	2.86	CCNC(=O)CN1CCN(CC(=O)O)CCN(CC(=O)O)CC1 [H2 L ^1]	21.37	18.89	–	Stability of Sc^III complex in solution [2]: limited stability
19.50(1)	19.50	7.77	3.11	O=C(O)CN1CCN(CC(=O)O)CCN(CC(=O)O)CC1 [H3nota, 1,4,7-Triazacyclononane-1,4,7-triacetic Acid]	23.33	22.32	–	Overall stability constant logβ, Sc + 2 L + H+ ⇄ [Sc(HL)(L)] ([1]; I = 0.1M (NMe4)Cl, 25 °C): 35.78(6); Overall stability constant logβ, Sc + L + H2O ⇄ [Sc(L)(OH)] + H+ ([1]; I = 0.1M (NMe4)Cl, 25 °C): 11.73(2); Stability constant log K ML, Sc^III ([1]; comparison table): 19.50; Stability constant log K ML, Ga^III [5]: 29.60; Stability constant log K ML, Cd^II [6]: 17.87; Stability constant log K ML, Pb^II [7]: 18.18
–	–	–	–	O=C(O)CN1CCN(Cc2cccc(C(=O)O)n2)CCN(CP(=O)(O)O)CC1 [H4mpatcn-P]	–	–	21–26	–
–	–	–	–	O=C(O)CN1CCN(CC(=O)O)CCN(Cc2cccc(P(=O)(O)O)n2)CC1 [H4mpatcn-PyP]	–	–	21–26	–
–	–	–	–	O=C([O-])CN(CCN(CC(=O)[O-])CC(=O)[O-])CCN(CC(=O)[O-])CC(=O)[O-].[Sc+3] [[Sc(dtpa)]^2–]	–	–	27.43	–
–	–	–	–	O=C([O-])CN1CCN(CC(=O)[O-])CCN(Cc2cccc(C(=O)[O-])n2)CC1.[Sc+3] [[Sc(mpatcn)]]	–	–	21–26	–
